Reference: the NIST ThermoML archive (doi:10.1021/acs.jced.5b00051)
Numbers after ± are expanded uncertainties.

assay: molar heat capacity at constant pressure; settings: 291.15 K; 101.33 kPa; Liquid; Large sample (1 g) DSC

First: CCOCCOCCO [3,6-dioxa-1-octanol]
Second: CCCOCCOCCO [2-(2-propoxyethoxy)ethanol]
The “molar heat capacity at constant pressure” value of the first is lower: 299.9 ± 4.6 J/K/mol for the first, 326.8 ± 5.1 J/K/mol for the second.

For `CCCCOCCOCCO` [3,6-dioxa-1-decanol], the “molar heat capacity at constant pressure” value was 357.3 ± 5.5 J/K/mol.

same assay, conditions: 293.15 K; 101.33 kPa; Liquid; Large sample (1 g) DSC

Going from `CCCCCCCCOCCOCCOCCO` [2-[2-[2-(octyloxy)ethoxy]ethoxy]ethanol] to `CCCCOCCOCCO` [3,6-dioxa-1-decanol], the “molar heat capacity at constant pressure” value falls from 571.3 ± 8.9 J/K/mol to 358.1 ± 5.5 J/K/mol.

First: CCCOCCO [2-propoxyethanol]
Second: CCCOCCOCCO [2-(2-propoxyethoxy)ethanol]
The “molar heat capacity at constant pressure” value of the first is lower: 239.2 ± 3.7 J/K/mol for the first, 327.5 ± 5.1 J/K/mol for the second.

Going from `COCCOCCOCCOCCO` [3,6,9,12-tetraoxatridecanol] to `CCOCCOCCO` [3,6-dioxa-1-octanol], the “molar heat capacity at constant pressure” value falls from 447.7 ± 6.9 J/K/mol to 300.4 ± 4.7 J/K/mol.

same assay, conditions: 295.15 K; 101.33 kPa; Liquid; Large sample (1 g) DSC

First: CCCCCCCCOCCOCCOCCO [2-[2-[2-(octyloxy)ethoxy]ethoxy]ethanol]
Second: CCCCOCCOCCO [3,6-dioxa-1-decanol]
The “molar heat capacity at constant pressure” value of the first is higher: 572.2 ± 8.9 J/K/mol for the first, 359 ± 5.6 J/K/mol for the second.

Compared with `CCCOCCO` [2-propoxyethanol], `CCCOCCOCCO` [2-(2-propoxyethoxy)ethanol] is higher in “molar heat capacity at constant pressure” value: 240.1 ± 3.7 J/K/mol for the first, 328.2 ± 5.1 J/K/mol for the second.

Compared with `COCCOCCOCCOCCO` [3,6,9,12-tetraoxatridecanol], `CCOCCOCCO` [3,6-dioxa-1-octanol] is lower in “molar heat capacity at constant pressure” value: 448.1 ± 6.9 J/K/mol for the first, 300.9 ± 4.7 J/K/mol for the second.

same assay, conditions: 297.15 K; 101.33 kPa; Liquid; Large sample (1 g) DSC

First: CCCCCCCCOCCOCCOCCO [2-[2-[2-(octyloxy)ethoxy]ethoxy]ethanol]
Second: CCCCOCCOCCO [3,6-dioxa-1-decanol]
The “molar heat capacity at constant pressure” value of the first is higher: 573.2 ± 8.9 J/K/mol for the first, 359.8 ± 5.6 J/K/mol for the second.

Going from `CCCOCCO` [2-propoxyethanol] to `CCCOCCOCCO` [2-(2-propoxyethoxy)ethanol], the “molar heat capacity at constant pressure” value rises from 240.9 ± 3.7 J/K/mol to 329 ± 5.1 J/K/mol.

First: COCCOCCOCCOCCO [3,6,9,12-tetraoxatridecanol]
Second: CCOCCOCCO [3,6-dioxa-1-octanol]
The “molar heat capacity at constant pressure” value of the first is higher: 448.4 ± 6.9 J/K/mol for the first, 301.4 ± 4.7 J/K/mol for the second.

same assay, conditions: 298.15 K; 101.33 kPa; Liquid; Large sample (1 g) DSC

First: CCCCCCCCOCCOCCOCCO [2-[2-[2-(octyloxy)ethoxy]ethoxy]ethanol]
Second: CCCCOCCOCCO [3,6-dioxa-1-decanol]
The “molar heat capacity at constant pressure” value of the first is higher: 573.7 ± 8.9 J/K/mol for the first, 360.2 ± 5.6 J/K/mol for the second.

Going from `CCCOCCO` [2-propoxyethanol] to `CCCOCCOCCO` [2-(2-propoxyethoxy)ethanol], the “molar heat capacity at constant pressure” value rises from 241.4 ± 3.7 J/K/mol to 329.4 ± 5.1 J/K/mol.

Going from `COCCOCCOCCOCCO` [3,6,9,12-tetraoxatridecanol] to `CCOCCOCCO` [3,6-dioxa-1-octanol], the “molar heat capacity at constant pressure” value falls from 448.6 ± 6.9 J/K/mol to 301.7 ± 4.7 J/K/mol.

same assay, conditions: 299.15 K; 101.33 kPa; Liquid; Large sample (1 g) DSC

Going from `CCCCCCCCOCCOCCOCCO` [2-[2-[2-(octyloxy)ethoxy]ethoxy]ethanol] to `CCCCOCCOCCO` [3,6-dioxa-1-decanol], the “molar heat capacity at constant pressure” value falls from 574.2 ± 8.9 J/K/mol to 360.6 ± 5.6 J/K/mol.

Going from `CCCOCCO` [2-propoxyethanol] to `CCCOCCOCCO` [2-(2-propoxyethoxy)ethanol], the “molar heat capacity at constant pressure” value rises from 241.8 ± 3.7 J/K/mol to 329.7 ± 5.1 J/K/mol.

Compared with `COCCOCCOCCOCCO` [3,6,9,12-tetraoxatridecanol], `CCOCCOCCO` [3,6-dioxa-1-octanol] is lower in “molar heat capacity at constant pressure” value: 448.8 ± 7 J/K/mol for the first, 301.9 ± 4.7 J/K/mol for the second.

same assay, conditions: 301.15 K; 101.33 kPa; Liquid; Large sample (1 g) DSC

First: CCCCCCCCOCCOCCOCCO [2-[2-[2-(octyloxy)ethoxy]ethoxy]ethanol]
Second: CCCCOCCOCCO [3,6-dioxa-1-decanol]
The “molar heat capacity at constant pressure” value of the first is higher: 575.2 ± 8.9 J/K/mol for the first, 361.5 ± 5.6 J/K/mol for the second.

First: CCCOCCO [2-propoxyethanol]
Second: CCCOCCOCCO [2-(2-propoxyethoxy)ethanol]
The “molar heat capacity at constant pressure” value of the first is lower: 242.7 ± 3.8 J/K/mol for the first, 330.5 ± 5.1 J/K/mol for the second.

Compared with `COCCOCCOCCOCCO` [3,6,9,12-tetraoxatridecanol], `CCOCCOCCO` [3,6-dioxa-1-octanol] is lower in “molar heat capacity at constant pressure” value: 449.2 ± 7 J/K/mol for the first, 302.5 ± 4.7 J/K/mol for the second.

same assay, conditions: 303.15 K; 101.33 kPa; Liquid; Large sample (1 g) DSC

Compared with `CCCCCCCCOCCOCCOCCO` [2-[2-[2-(octyloxy)ethoxy]ethoxy]ethanol], `CCCCOCCOCCO` [3,6-dioxa-1-decanol] is lower in “molar heat capacity at constant pressure” value: 576.2 ± 8.9 J/K/mol for the first, 362.4 ± 5.6 J/K/mol for the second.

First: CCCOCCO [2-propoxyethanol]
Second: CCCOCCOCCO [2-(2-propoxyethoxy)ethanol]
The “molar heat capacity at constant pressure” value of the first is lower: 243.5 ± 3.8 J/K/mol for the first, 331.3 ± 5.1 J/K/mol for the second.

First: COCCOCCOCCOCCO [3,6,9,12-tetraoxatridecanol]
Second: CCOCCOCCO [3,6-dioxa-1-octanol]
The “molar heat capacity at constant pressure” value of the first is higher: 449.6 ± 7 J/K/mol for the first, 303.1 ± 4.7 J/K/mol for the second.

same assay, conditions: 305.15 K; 101.33 kPa; Liquid; Large sample (1 g) DSC

Going from `CCCCCCCCOCCOCCOCCO` [2-[2-[2-(octyloxy)ethoxy]ethoxy]ethanol] to `CCCCOCCOCCO` [3,6-dioxa-1-decanol], the “molar heat capacity at constant pressure” value falls from 577.3 ± 8.9 J/K/mol to 363.3 ± 5.6 J/K/mol.

Going from `CCCOCCO` [2-propoxyethanol] to `CCCOCCOCCO` [2-(2-propoxyethoxy)ethanol], the “molar heat capacity at constant pressure” value rises from 244.4 ± 3.8 J/K/mol to 332 ± 5.1 J/K/mol.

Going from `COCCOCCOCCOCCO` [3,6,9,12-tetraoxatridecanol] to `CCOCCOCCO` [3,6-dioxa-1-octanol], the “molar heat capacity at constant pressure” value falls from 450 ± 7 J/K/mol to 303.7 ± 4.7 J/K/mol.
